Measurements from PubChem BioAssay (NCI).
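Compound exposure: 48 hours, 5 concentrations, 96-well plates. TGI: concentration producing complete growth inhibition.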

Experiments:
Test in all cases: NCI tumour cell line growth inhibition, 48 h
[1] = system: 786-0 renal
[2] = system: A498 renal
[3] = system: A549 NSCLC
[4] = system: ACHN renal
[5] = system: BT-549 breast
[6] = system: CAKI-1 renal
[7] = system: CCRF-CEM leukemia
[8] = system: COLO 205 colon
[9] = system: DU-145 prostate
[10] = system: EKVX NSCLC
[11] = system: HCC-2998 colon
[12] = system: HCT-116 colon
[13] = system: HCT-15 colon
[14] = system: HL-60(TB) leukemia
[15] = system: HOP-62 NSCLC
[16] = system: HOP-92 NSCLC
[17] = system: HS 578T breast
[18] = system: HT29 colon
[19] = system: IGROV1 ovarian
[20] = system: K-562 leukemia
[21] = system: KM12 colon
[22] = system: LOX IMVI melanoma
[23] = system: M14 melanoma
[24] = system: MALME-3M melanoma
[25] = system: MCF7 breast
[26] = system: MDA-MB-231 breast
[27] = system: MDA-MB-435
[28] = system: MDA-N
[29] = system: MOLT-4 leukemia
[30] = system: NCI-H226 lung
[31] = system: NCI-H23 lung
[32] = system: NCI-H460 lung
[33] = system: NCI-H522 lung
[34] = system: NCI/ADR-RES ovarian
[35] = system: OVCAR-3 ovarian
[36] = system: OVCAR-4 ovarian
[37] = system: OVCAR-5 ovarian
[38] = system: OVCAR-8 ovarian
[39] = system: PC-3 prostate
[40] = system: RPMI-8226 leukemia
[41] = system: RXF 393 renal
[42] = system: SF-268 CNS
[43] = system: SF-295 CNS
[44] = system: SF-539 CNS
[45] = system: SK-MEL-2 melanoma
[46] = system: SK-MEL-28 melanoma
[47] = system: SK-MEL-5 melanoma
[48] = system: SK-OV-3 ovarian
[49] = system: SN12C renal
[50] = system: SNB-19 CNS
[51] = system: SNB-75 CNS
[52] = system: SR leukemia
[53] = system: SW-620 colon
[54] = system: T-47D breast
[55] = system: TK-10 renal
[56] = system: U251 CNS
[57] = system: UACC-257 melanoma
[58] = system: UACC-62 melanoma
[59] = system: UO-31 renal
[60] = system: DLD-1 colon
[61] = system: DMS 114 small cell lung
[62] = system: DMS 273 small cell lung
[63] = system: HOP-18 NSCLC
[64] = system: KM20L2 colon
[65] = system: LXFL 529 NSCLC
[66] = system: M19-MEL melanoma

SMILES: COc1ccc2cc(CN3CCC(C4CCNCC4)CC3)ccc2c1
- TGI [1]: 3 µM
- TGI [2]: 14.7 µM
- TGI [3]: 36.8 µM
- TGI [4]: 11.9 µM
- TGI [5]: 24.3 µM
- TGI [6]: 6.03 µM
- TGI [7]: 12.7 µM
- TGI [8]: 3.25 µM
- TGI [9]: 15 µM
- TGI [10]: 21.2 µM
- TGI [11]: 1.41 µM
- TGI [12]: 3.73 µM
- TGI [13]: 6.44 µM
- TGI [14]: 3.38 µM
- TGI [15]: 8.98 µM
- TGI [16]: 5.75 µM
- TGI [17]: > 30.5 µM
- TGI [18]: 2.65 µM
- TGI [19]: 15.2 µM
- TGI [20]: 3.22 µM
- TGI [21]: 5.25 µM
- TGI [22]: 2.94 µM
- TGI [23]: 3.15 µM
- TGI [24]: 3.02 µM
- TGI [25]: 6.32 µM
- TGI [26]: 5.08 µM
- TGI [27]: 3.58 µM
- TGI [28]: 4.19 µM
- TGI [29]: 4.84 µM
- TGI [30]: 29.2 µM
- TGI [31]: 33 µM
- TGI [32]: 4.4 µM
- TGI [33]: 4.54 µM
- TGI [34]: 21 µM
- TGI [35]: 15.8 µM
- TGI [36]: 31.3 µM
- TGI [37]: 20.4 µM
- TGI [38]: 22.1 µM
- TGI [39]: 28 µM
- TGI [40]: 4.61 µM
- TGI [41]: 5.19 µM
- TGI [42]: > 22.3 µM
- TGI [43]: 3.5 µM
- TGI [44]: 4.03 µM
- TGI [45]: 3.81 µM
- TGI [46]: 3.27 µM
- TGI [47]: 3.1 µM
- TGI [48]: 23.4 µM
- TGI [49]: 23 µM
- TGI [50]: 18.3 µM
- TGI [51]: 5.95 µM
- TGI [52]: 5.16 µM
- TGI [53]: 3.42 µM
- TGI [54]: 5.23 µM
- TGI [55]: 21.3 µM
- TGI [56]: 3.74 µM
- TGI [57]: 3.47 µM
- TGI [58]: 3.87 µM
- TGI [59]: 6.29 µM

SMILES: COc1ccc(N2C(=O)C3c4[nH]c5ccc(F)cc5c4C4CCC(c5ccccc5)CC4C3C2=O)cc1 (stereo not given)
- TGI [1]: 12.1 µM
- TGI [2]: 34.3 µM
- TGI [3]: > 100 µM
- TGI [4]: 74.1 µM
- TGI [5]: 40.7 µM
- TGI [6]: 48.1 µM
- TGI [7]: 16.5 µM
- TGI [8]: > 100 µM
- TGI [9]: > 100 µM
- TGI [10]: 63 µM
- TGI [11]: > 100 µM
- TGI [12]: > 100 µM
- TGI [13]: > 100 µM
- TGI [15]: 28.1 µM
- TGI [16]: 36.8 µM
- TGI [17]: 31.8 µM
- TGI [18]: > 100 µM
- TGI [19]: 56.2 µM
- TGI [20]: 14.2 µM
- TGI [21]: > 100 µM
- TGI [22]: > 100 µM
- TGI [23]: 45.1 µM
- TGI [24]: 33.3 µM
- TGI [25]: > 100 µM
- TGI [26]: 44 µM
- TGI [27]: 53.9 µM
- TGI [28]: > 100 µM
- TGI [30]: > 100 µM
- TGI [31]: 44.5 µM
- TGI [32]: 46.8 µM
- TGI [33]: 39.1 µM
- TGI [34]: > 100 µM
- TGI [35]: > 100 µM
- TGI [36]: 32.6 µM
- TGI [37]: 47.8 µM
- TGI [38]: 50.6 µM
- TGI [39]: 35.2 µM
- TGI [40]: > 100 µM
- TGI [42]: 20.3 µM
- TGI [43]: > 100 µM
- TGI [45]: 59.6 µM
- TGI [46]: 32.7 µM
- TGI [47]: 54.2 µM
- TGI [48]: 49.5 µM
- TGI [49]: > 100 µM
- TGI [50]: 27.9 µM
- TGI [51]: 31.6 µM
- TGI [52]: 36.1 µM
- TGI [53]: 59.9 µM
- TGI [54]: > 100 µM
- TGI [55]: 70.1 µM
- TGI [56]: 27.1 µM
- TGI [57]: 97 µM
- TGI [58]: 27.6 µM
- TGI [59]: 55.5 µM

SMILES: C/C=C/CC(C)[C@@H](O)[C@H](NC)C(=O)O (stereo not given in full)
- TGI [1]: > 100 µM
- TGI [3]: > 100 µM
- TGI [4]: > 100 µM
- TGI [6]: > 100 µM
- TGI [7]: > 100 µM
- TGI [8]: > 100 µM
- TGI [60]: > 100 µM
- TGI [61]: > 100 µM
- TGI [62]: > 100 µM
- TGI [10]: > 100 µM
- TGI [11]: > 100 µM
- TGI [13]: > 100 µM
- TGI [14]: > 100 µM
- TGI [63]: > 100 µM
- TGI [15]: > 100 µM
- TGI [16]: > 100 µM
- TGI [18]: > 100 µM
- TGI [19]: > 100 µM
- TGI [20]: > 100 µM
- TGI [21]: > 100 µM
- TGI [64]: > 100 µM
- TGI [22]: > 100 µM
- TGI [65]: > 100 µM
- TGI [23]: > 100 µM
- TGI [66]: > 100 µM
- TGI [24]: > 100 µM
- TGI [29]: > 100 µM
- TGI [31]: > 100 µM
- TGI [32]: > 100 µM
- TGI [33]: > 100 µM
- TGI [35]: > 100 µM
- TGI [36]: > 100 µM
- TGI [37]: > 100 µM
- TGI [38]: > 100 µM
- TGI [40]: > 100 µM
- TGI [41]: > 100 µM
- TGI [42]: > 100 µM
- TGI [43]: > 100 µM
- TGI [44]: > 100 µM
- TGI [45]: > 100 µM
- TGI [46]: > 100 µM
- TGI [47]: > 100 µM
- TGI [48]: > 100 µM
- TGI [49]: > 100 µM
- TGI [50]: > 100 µM
- TGI [51]: > 100 µM
- TGI [53]: > 100 µM
- TGI [55]: > 100 µM
- TGI [56]: > 100 µM
- TGI [57]: > 100 µM
- TGI [58]: > 100 µM
- TGI [59]: > 100 µM

SMILES: Cc1ccc(S(=O)(=O)NNC(=O)c2cc(C)c(C)cc2N)cc1
- TGI [1]: > 100 µM
- TGI [2]: > 100 µM
- TGI [4]: > 100 µM
- TGI [5]: > 100 µM
- TGI [6]: > 100 µM
- TGI [7]: > 100 µM
- TGI [8]: > 100 µM
- TGI [9]: > 100 µM
- TGI [10]: > 100 µM
- TGI [11]: > 100 µM
- TGI [12]: > 100 µM
- TGI [13]: > 100 µM
- TGI [14]: > 100 µM
- TGI [15]: > 100 µM
- TGI [16]: > 100 µM
- TGI [17]: > 100 µM
- TGI [18]: > 100 µM
- TGI [19]: > 100 µM
- TGI [20]: > 100 µM
- TGI [21]: > 100 µM
- TGI [22]: > 100 µM
- TGI [24]: > 100 µM
- TGI [25]: > 100 µM
- TGI [26]: > 100 µM
- TGI [27]: > 100 µM
- TGI [28]: > 100 µM
- TGI [29]: > 100 µM
- TGI [30]: > 100 µM
- TGI [31]: > 100 µM
- TGI [32]: > 100 µM
- TGI [33]: > 100 µM
- TGI [34]: > 100 µM
- TGI [35]: > 100 µM
- TGI [36]: > 100 µM
- TGI [37]: > 100 µM
- TGI [38]: > 100 µM
- TGI [39]: > 100 µM
- TGI [40]: > 100 µM
- TGI [41]: > 100 µM
- TGI [43]: > 100 µM
- TGI [44]: > 100 µM
- TGI [46]: > 100 µM
- TGI [47]: > 100 µM
- TGI [48]: > 100 µM
- TGI [49]: > 100 µM
- TGI [50]: > 100 µM
- TGI [51]: > 100 µM
- TGI [52]: > 100 µM
- TGI [53]: > 100 µM
- TGI [54]: > 100 µM
- TGI [56]: > 100 µM
- TGI [57]: > 100 µM
- TGI [58]: > 100 µM
- TGI [59]: > 100 µM
